Common to all, as to format: in vivo, Wistar rats
One series concerns MMP-9 mRNA. Briefly: Real-time PCR of retinal mRNA after ischaemia/reperfusion: MMP-9. Particulars: 100 μM SAC pre-treatment, 24 hours after I/R; control 0.46±0.15, vehicle 1.97±0.38; n=6. The procedure: (§1) The rats (200-250 g) were anaesthetized and placed in a stereotaxic frame. The anterior chamber of one eye was cannulated with a 30-gauge needle connected to a 0.9% saline reservoir; this caused a high IOP (HIOP) of 120 mmHg for 60 minutes. Eye fundus whitening and a low ERG response confirmed induction of an ischaemic insult. A sham procedure was carried out on the controls. Drug administration involved the pre-administration (15-minute before 60-minute HIOP induced retinal ischaemia) of SAC (25, 50, 100 μM) or vehicle (saline; control). The ischemic eye of each test rat was treated with or without a single intravitreous injection of 5 μl of the test compound. […] The levels of Thy-1, HIF-1 Alpha, VEGF and MMP-9 mRNAs present in the retinas were determined using a real-time PCR technique. […] Relative quantification (a comparative method) was performed using the house keeping gene Beta-actin as the internal standard. This process allows the normalized quantification of the mRNA target (Ct) and takes into account the differences in the amount of total RNA added to each reaction (ΔCt). The relative HIF-1 Alpha/VEGF/MMP-9 expression changes were calculated as fold changes relative to the control with respect to the calibrator (ΔΔCt), which was represented by the control retina. […] The data obtained for each treatment were pooled, and a total percentage change relative to the control was calculated. […]
(In qPCR the cycle at which signal appears reflects the starting amount.)

Series [1] deals with ischaemic retina (HIOP induced retinal ischaemia/reperfusion). Briefly: Flash ERG b-wave after high IOP induced retinal ischaemia/reperfusion, intravitreous pre-treatment. Particulars: for ERG b-wave ratio (ischaemic eye vs. fellow normal eye): n=6; for pre-ischaemia b-wave ratio baseline (day 0): day 0 baseline. The procedure:
All investigations involving the use of animals conformed to the Association for Research in Vision and Ophthalmology Statement for the Use of Animals in Ophthalmology and Vision Research and were approved by the Institutional Review Board of Cheng Hsin General Hospital (Taipei, Taiwan). The six-week-old Wistar rats were kept in an animal house where the humidity was 40-60% and the temperature 19-23° C. They were kept on a 12-hour light/dark cycle with 12 to 15 air changes/hour. The animals were provided with food and water ad libitum.
The rats (200-250 g) were anaesthetized and placed in a stereotaxic frame. The anterior chamber of one eye was cannulated with a 30-gauge needle connected to a 0.9% saline reservoir; this caused a high IOP (HIOP) of 120 mmHg for 60 minutes. Eye fundus whitening and a low ERG response confirmed induction of an ischaemic insult. A sham procedure was carried out on the controls.
Drug administration involved the pre-administration (15-minute before 60-minute HIOP induced retinal ischaemia) of SAC (25, 50, 100 μM) or vehicle (saline; control). The ischemic eye of each test rat was treated with or without a single intravitreous injection of 5 μl of the test compound. In addition, SAC (100 μM) was administered to the non-ischaemic eye (normal) to see whether SAC has any adverse effects. In both cases, the paired normal eye was untreated.
Flash ERG recordings were performed on all rats before retinal ischaemia (day 0), as well as at 1, 3, 5, and 7 days after ischaemia and treatment with or without the defined chemicals. The animals were dark adapted and anaesthetized to do this. A strobe was placed 2 cm in front of the animal to provide a stimulus of 0.5 Hz. Fifteen consecutive responses were recorded at two-second intervals and at 10 kHz; the responses were amplified and averaged using an amplifier P511/regulated power supply RPS 107/stimulator PS22 (Grass-Telefactor; Astro-Med Inc., West Warwick, R.I., USA). For comparative purposes, the b-wave ratio, namely the b-wave amplitude of the ischaemic/sham-operation eye or the untreated/SAC-treated non-ischaemic (normal) eye as compared with that of the contralateral normal eye, was calculated.

Another series concerns Thy-1 mRNA. Nature of the series: Real-time PCR of retinal mRNA after ischaemia/reperfusion: Thy-1. Particulars: 100 μM SAC pre-treatment, 24 hours after I/R; control 3.28±1.09, vehicle 0.29±0.07; n=6. The protocol:
as §1

The values below come from patent publication US8569372B2, “Method for preventing or treating a disease, disorder or condition induced by retina ischemia” (priority 2011, dated 2013).

Regarding `C=CCSC[C@H](N)C(=O)O` [SAC, S-allyl L-cysteine], the “MMP-9 mRNA ratio in the retina” value in the series with MMP-9 mRNA is reported as 0.41±0.15. Further, the “ERG b-wave ratio (ischaemic eye vs. fellow normal eye)” value in series [1] (25 μM SAC, day 1 after I/R, vehicle 0.19±0.03) stood at 0.47±0.10; in series [1] (25 μM SAC, day 3 after I/R, vehicle 0.18±0.05), 0.44±0.11; in series [1] (25 μM SAC, day 5 after I/R, vehicle 0.24±0.05) it was 0.54±0.09; in series [1] (25 μM SAC, day 7 after I/R, vehicle 0.18±0.02), 0.55±0.06; in series [1] (50 μM SAC, day 1 after I/R, vehicle 0.19±0.03), 0.56±0.03; in series [1] (50 μM SAC, day 3 after I/R, vehicle 0.18±0.05), 0.60±0.05. Also, the “ERG b-wave ratio (ischaemic eye vs. fellow normal eye)” value in series [1] (50 μM SAC, day 5 after I/R, vehicle 0.24±0.05) is 0.65±0.02; in series [1] (50 μM SAC, day 7 after I/R, vehicle 0.18±0.02) it was 0.61±0.05; in series [1] (100 μM SAC, day 1 after I/R, vehicle 0.19±0.03), 0.64±0.04; in series [1] (100 μM SAC, day 3 after I/R, vehicle 0.18±0.05), 0.79±0.03; in series [1] (100 μM SAC, day 5 after I/R, vehicle 0.24±0.05), 0.84±0.03; in series [1] (100 μM SAC, day 7 after I/R, vehicle 0.18±0.02) it was 0.84±0.04. Further, in series [1] (100 μM SAC intravitreous pre-treatment, 1 day after I/R, sham control 0.35 mV, vehicle 0.08 mV), the ERG b-wave amplitude stood at 0.24 mV. In series [1] (100 μM SAC pre-treatment, 1 day after I/R, vehicle 22.86%), the “ERG b-wave amplitude, % of the control value” is reported as 68.57 % of the control value. Moreover, the “pre-ischaemia b-wave ratio baseline (day 0)” value in series [1] (group pre-treated with 25 μM SAC) came out at 1.08±0.07; in series [1] (group pre-treated with 50 μM SAC), 0.98±0.04; in series [1] (group pre-treated with 100 μM SAC), 0.92±0.04. In addition, in the series on Thy-1 mRNA, the “Thy-1:β-actin mRNA ratio in the retina” value is on record as 1.25±0.30.
